Experimental data: article PMC4252796 (Molecular and biochemical parasitology, 2014)

Target: T1, LmjPEM1 (Leishmania major, UniProt Q4Q5U4)
T1 sequence (Q4Q5U4 1-582): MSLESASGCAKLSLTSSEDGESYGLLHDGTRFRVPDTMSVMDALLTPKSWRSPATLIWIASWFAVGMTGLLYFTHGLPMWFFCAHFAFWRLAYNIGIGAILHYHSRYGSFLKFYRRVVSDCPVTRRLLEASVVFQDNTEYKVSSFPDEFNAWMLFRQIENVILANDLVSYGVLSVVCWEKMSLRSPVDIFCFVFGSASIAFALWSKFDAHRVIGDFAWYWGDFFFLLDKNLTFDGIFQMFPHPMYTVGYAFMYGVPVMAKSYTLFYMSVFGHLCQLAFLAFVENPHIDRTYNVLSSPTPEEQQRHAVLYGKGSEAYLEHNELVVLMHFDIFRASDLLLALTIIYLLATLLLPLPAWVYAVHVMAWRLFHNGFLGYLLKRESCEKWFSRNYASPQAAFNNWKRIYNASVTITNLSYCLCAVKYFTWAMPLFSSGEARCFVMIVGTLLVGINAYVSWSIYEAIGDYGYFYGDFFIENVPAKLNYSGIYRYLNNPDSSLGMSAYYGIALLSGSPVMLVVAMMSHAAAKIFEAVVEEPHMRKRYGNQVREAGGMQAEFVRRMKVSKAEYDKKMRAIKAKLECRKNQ
Experiment: radiometric PEMT assay, 3H-SAM incorporation into total lipids, yeast extract
Type: biochemical
Settings: endogenous yeast PE as substrate; 0.1 M TrisHCl pH 7.5, 30°C, 50 min

In the case of `CCCCCCCCCCCCCCCCOP(=O)([O-])OCC[N+](C)(C)C` [compound 5, miltefosine], the “% activity at 10 or 100 μM” value is reported as “followed by miltefosine, octadecyltrimethylammonium bromide, and octadecylphosphocholine”.

With `CCCCCCCCCCCCCCCC[N+](C)(C)C` [compound 2, hexadecyltrimethylammonium bromide] the “% activity at 10 or 100 μM” value was “LmjPEM1 activity was best inhibited by hexadecyltrimethylammonium bromide”.

For `CCCCCCCCCCCCCCCCCC[N+](C)(C)C` [compound 1, octadecyltrimethylammonium bromide], the “% activity at 10 or 100 μM” value was “followed by miltefosine, octadecyltrimethylammonium bromide, and octadecylphosphocholine”.

In the case of `C[N+](C)(C)CCO` [compound 3, choline], the “% activity at 10 or 100 μM” value is reported as “while choline had a very small effect”.

In the case of `CCCCCCCCCCCCCCCCCCOP(=O)([O-])OCC[N+](C)(C)C` [compound 6, octadecylphosphocholine], the “% activity at 10 or 100 μM” value is reported as “followed by miltefosine, octadecyltrimethylammonium bromide, and octadecylphosphocholine”.
